In US8546563B2, “Compounds which modulate the CB2 receptor” (Boehringer Ingelheim International GmbH, priority 2007, dated 2013):

These compounds were tested against T1, human CB2R (Homo sapiens, UniProt P34972) (assay: CB2R mediated modulation of cAMP synthesis). Conditions: CHO cells expressing human CB2R; inhibition of forskolin-stimulated cAMP synthesis (agonist); read-out: CB2 EC50.
T1 construct: host or cells: CHO cells
Assay type: cell-based
Method: B. CB2R Mediated Modulation of cAMP Synthesis:
Compounds of the invention were evaluated for their CB2 agonist or inverse agonistic activity in accordance with the following experimental method.
CHO cells expressing human CB2R (Euroscreen) were plated at a density of 5000 cells per well in 384 well plates and incubated overnight at 37° C. After removing the media, the cells were treated with test compounds diluted in stimulation buffer containing 1 mM IBMX, 0.25% BSA and 10 uM Forskolin. The assay was incubated for 30 minutes at 37° C. Cells were lysed and the cAMP concentration was measured using DiscoverX-XS cAMP kit, following the manufacturer's protocol. In this setting, agonists will decrease forskolin induced production of cAMP while inverse agonists will further increase forskolin induced production of cAMP. EC50 of agonists were calculated as follows. The maximal amount of cAMP produced by forskolin compared to the level of cAMP inhibited by 1 uM CP55940 is defined as 100%. The EC50 value of each test compound was determined as the concentration at which 50% of the forskolin-stimulated cAMP synthesis was inhibited. Data was analyzed using a four-parameter logistic model. (Model 205 of XLfit 4.0).

T1 sequence (P34972 whole entry): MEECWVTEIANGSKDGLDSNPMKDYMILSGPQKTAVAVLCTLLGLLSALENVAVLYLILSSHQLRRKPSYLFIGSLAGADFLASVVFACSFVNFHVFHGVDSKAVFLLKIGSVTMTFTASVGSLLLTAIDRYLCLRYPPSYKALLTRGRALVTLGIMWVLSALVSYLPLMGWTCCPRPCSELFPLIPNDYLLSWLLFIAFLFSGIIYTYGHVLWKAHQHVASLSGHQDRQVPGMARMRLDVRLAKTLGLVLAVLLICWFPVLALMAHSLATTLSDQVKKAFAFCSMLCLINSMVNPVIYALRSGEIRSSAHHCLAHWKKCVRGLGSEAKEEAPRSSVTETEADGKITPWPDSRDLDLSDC

Row | SMILES | EC50 [nM]
1 | CC(C)(C)c1ccc(NC(=O)C(C)(C)S(=O)(=O)N2CCC2)cc1 [Example 58, 2-(Azetidine-1-sulfonyl)-N-(4-tert-butyl-phenyl)-2-methyl-propionamide] | 3.1
2 | CCCCN(C)S(=O)(=O)C(C)(C)C(=O)Nc1cc(C(C)(C)C)on1 [Example 41, N-(5-tert-Butyl-isoxazol-3-yl)-2-(butyl-methyl-sulfamoyl)-2-methyl-propionamide] | 1.7
3 | CCCCNS(=O)(=O)C(C)(C)C(=O)Nc1cc(C(C)(C)C)on1 [Example 24, N-(5-tert-Butyl-isoxazol-3-yl)-2-butylsulfamoyl-2-methyl-propionamide] | 10
4 | CC(C)(C)c1cc(NC(=O)C(C)(C)S(=O)(=O)N2CCOCC2)on1 [Example 85, N-(3-tert-Butyl-isoxazol-5-yl)-2-methyl-2-(morpholine-4-sulfonyl)-propionamide] | 15
5 | CC1CCCCN1S(=O)(=O)C(C)(C)C(=O)Nc1cc(C(C)(C)C)on1 (stereo not shown) | 97
6 | CC(C)(C(=O)Nc1nnc(-c2ccccc2)[nH]1)S(=O)(=O)N1CCC1 | 11
7 | CC(C)(C(=O)Nc1nc(-c2cccs2)cs1)S(=O)(=O)N1CCC1 [Example 53, 2-(Azetidine-1-sulfonyl)-2-methyl-N-(4-thiophen-2-yl-thiazol-2-yl)-propionamide] | 41
8 | CC(C)(C)c1cc(NC(=O)C(C)(C)S(=O)(=O)NC2CCCC2)no1 [Example 10, N-(5-tert-Butyl-isoxazol-3-yl)-2-cyclopentylsulfamoyl-2-methyl-propionamide] | 13
9 | CC(C)(C)c1cc(NC(=O)C(C)(C)S(=O)(=O)NC2CC2)no1 [Example 7, N-(5-tert-Butyl-isoxazol-3-yl)-2-cyclopropylsulfamoyl-2-methyl-propionamide] | 58
10 | CC(C)(C)c1cc(NC(=O)C(C)(C)S(=O)(=O)N2CCCC2)no1 [Example 6, N-(5-tert-Butyl-isoxazol-3-yl)-2-methyl-2-(pyrrolidine-1-sulfonyl)-propionamide] | 1.3
11 | CC(C)(C)c1cc(NC(=O)C(C)(C)S(=O)(=O)N2CCOCC2)no1 [Example 40] | 47
12 | Cc1sc(NC(=O)C(C)(C)S(=O)(=O)N2CCC2)nc1-c1ccc(F)cc1 | 17
13 | CC(C)(C(=O)Nc1ccc(C(F)(F)F)cc1F)S(=O)(=O)N1CCC1 | 86
14 | CC(C)(C(=O)Nc1nc(-c2ccc(Cl)cc2)cs1)S(=O)(=O)N1CCC1 | 8.9
15 | CC(C)c1cc(NC(=O)C(C)(C)S(=O)(=O)N2CCC2)on1 [Example 74, 2-(Azetidine-1-sulfonyl)-N-(3-isopropyl-isoxazol-5-yl)-2-methyl-propionamide] | 108
16 | CC(C)(C)c1cccc(NC(=O)C(C)(C)S(=O)(=O)N2CCC2)c1 [Example 65, 2-(Azetidine-1-sulfonyl)-N-(3-tert-butyl-phenyl)-2-methyl-propionamide] | 17
17 | CC(C)(C)c1cc(NC(=O)C(C)(C)S(=O)(=O)N2CC[C@@H](F)C2)no1 | 5.7
18 | CC(C)(C(=O)Nc1nc(C2CCCCC2)cs1)S(=O)(=O)N1CCC1 [Example 55, 2-(Azetidine-1-sulfonyl)-N-(4-cyclohexyl-thiazol-2-yl)-2-methyl-propionamide] | 22
19 | Cn1nc(C(C)(C)C)cc1NC(=O)C(C)(C)S(=O)(=O)N1CCOCC1 | 79
20 | CC(C)(C(=O)Nc1nc2c(s1)CCCC2)S(=O)(=O)N1CCC1 | 62

Row | SMILES | EC50 [nM]
21 | CC(C)(C)c1cc(NC(=O)C(C)(C)S(=O)(=O)N2CCCCC2)no1 [Example 9, N-(5-tert-Butyl-isoxazol-3-yl)-2-methyl-2-(piperidine-1-sulfonyl)-propionamide] | 6.5
22 | CCC(C)c1cc(NC(=O)C(C)(C)S(=O)(=O)N2CCC2)on1 (stereo not shown) [Example 73, 2-(Azetidine-1-sulfonyl)-N-(3-sec-butyl-isoxazol-5-yl)-2-methyl-propionamide] | 14
23 | CC(C)(C)c1cc(NC(=O)C(C)(C)S(=O)(=O)N2CCC(F)(F)CC2)no1 [N-(5-tert-Butyl-isoxazol-3-yl)-2-(4,4-difluoro-piperidine-1-sulfonyl)-2-methyl-propionamide] | 2.5
24 | CC(C)(C)c1cc(NC(=O)C(C)(C)S(=O)(=O)N2CCC2)ccn1 [Example 82, 2-(Azetidine-1-sulfonyl)-N-(2-tert-butyl-pyridin-4-yl)-2-methyl-propionamide] | 37
25 | CC(C)(C)c1cc(NC(=O)C(C)(C)S(=O)(=O)N2CC(F)(F)C2)no1 | 5
26 | CN(c1ccccc1)S(=O)(=O)C(C)(C)C(=O)Nc1nc(C(C)(C)C)cs1 [N-(4-tert-Butyl-thiazol-2-yl)-2-methyl-2-(methyl-phenyl-sulfamoyl)-propionamide] | 42
27 | CC(C)(C(=O)Nc1nnc(-c2ccccc2)[nH]1)S(=O)(=O)N1CCC(F)C1 (stereo not shown) | 5.1
28 | Cc1nc(NC(=O)C(C)(C)S(=O)(=O)N2CCC2)sc1C(C)(C)C | 2.5
29 | CC(C)(C)c1cc(NC(=O)C(C)(C)S(=O)(=O)NC2CCCCC2)no1 [Example 8, N-(5-tert-Butyl-isoxazol-3-yl)-2-cyclohexylsulfamoyl-2-methyl-propionamide] | 2.4
30 | CCCNS(=O)(=O)C(C)(C)C(=O)Nc1cc(C(C)(C)C)on1 [Example 35, N-(5-tert-Butyl-isoxazol-3-yl)-2-methyl-2-propylsulfamoyl-propionamide] | 33
31 | CC(C)(C(=O)Nc1nnc(-c2ccccc2)[nH]1)S(=O)(=O)N1CCOCC1 | 86
32 | CC(C)(C)c1cc(NC(=O)C(C)(C)S(=O)(=O)N2CCC2)no1 [Example 5, 2-(Azetidine-1-sulfonyl)-N-(5-tert-butyl-isoxazol-3-yl)-2-methyl-propionamide] | 3.6
33 | CC(C)(C(=O)Nc1nc(-c2ccc(F)cc2)cs1)S(=O)(=O)N1CCC1 | 19
34 | CC(C)(C(=O)Nc1nsc(-c2ccccc2)n1)S(=O)(=O)N1CCC1 | 72
35 | CCc1sc(NC(=O)C(C)(C)S(=O)(=O)N2CCC2)nc1-c1ccccc1 [Example 54, 2-(Azetidine-1-sulfonyl)-N-(5-ethyl-4-phenyl-thiazol-2-yl)-2-methyl-propionamide] | 6.6
36 | CC(C)(C)c1csc(NC(=O)C(C)(C)S(=O)(=O)N2CCC2)n1 [Example 44, 2-(Azetidine-1-sulfonyl)-N-(4-tert-butyl-thiazol-2-yl)-2-methyl-propionamide] | 14
37 | CC(C)(C(=O)Nc1nc2ccccc2s1)S(=O)(=O)N1CCC1 [Example 50, 2-(Azetidine-1-sulfonyl)-N-benzothiazol-2-yl-2-methyl-propionamide] | 26
38 | CC(C)(C)c1cc(NC(=O)C(C)(C)S(=O)(=O)N2CCC(F)C2)sn1 (stereo not shown) | 83
39 | CC(C)(C)c1cc(NC(=O)C(C)(C)S(=O)(=O)N2CCC2)on1 [Example 47, 2-(Azetidine-1-sulfonyl)-N-(3-tert-butyl-isoxazol-5-yl)-2-methyl-propionamide] | 20
40 | CCCCNS(=O)(=O)C(C)(C)C(=O)Nc1nc(C(C)(C)C)cs1 [Example 25, 2-Butylsulfamoyl-N-(4-tert-butyl-thiazol-2-yl)-2-methyl-propionamide] | 32
